ChEMBL document CHEMBL4316584, “All that glitters is not gold: Panning cytotoxic natural products and derivatives with a fused tricyclic backbone by the estimation of their leadlikeness for cancer treatment” (Eur J Med Chem, 2019)

Experiments:
Type in all cases: functional, cell-based
A549 = experiment: Cytotoxicity against human A549 cells after 48 hrs by MTT assay
MCF7 = experiment: Cytotoxicity against human MCF7 cells after 48 hrs by MTT assay; settings: MCF7, 48 h
HCT-116 = experiment: Cytotoxicity against human HCT116 cells after 48 hrs by MTT assay; settings: HCT-116, 48 h

CC(C)=CCc1c(O)c(CC=C(C)C)c2oc3ccc(O)cc3c(=O)c2c1O
IC50 (A549; Homo sapiens, A549, 48 h): 8.85 µM

O=C1C(=O)c2cccnc2-c2ncccc21
IC50 (MCF7): 0.58 µM

CC(C)c1cc2c(cc1O)[C@@]1(C)CCC[C@](C)(CO)[C@@H]1CC2
IC50 (A549; Homo sapiens, A549, 48 h): 14 µM

O=c1c2ccccc2oc2cc(O)ccc12
IC50 (A549; Homo sapiens, A549, 48 h): 14.6 µM

COC(=O)c1c(O)ccc2oc3cc(C)cc(O)c3c(=O)c12
IC50 (A549; Homo sapiens, A549, 48 h): 5.2 µM

COc1ccc(C(=O)/C=C/c2cc3c([nH]c4ccccc43)c(-c3ccc(F)cc3)n2)cc1
IC50 (A549; Homo sapiens, A549, 48 h): 8.43 µM

O=C(/C=C/c1cc2c([nH]c3ccccc32)c(-c2ccc(C(F)(F)F)cc2)n1)c1ccco1
IC50 (A549; Homo sapiens, A549, 48 h): 2.57 µM

COc1ccc(C(=O)/C=C/c2cc3c([nH]c4ccccc43)c(-c3ccc(F)c(OC)c3)n2)cc1
IC50 (A549; Homo sapiens, A549, 48 h): 5.1 µM

CC(=O)N1N=C(c2ccco2)CC1c1cc2c([nH]c3ccccc32)c(-c2ccc(C(F)(F)F)cc2)n1 (centres undefined)
IC50 (A549; Homo sapiens, A549, 48 h): 2.39 µM

COc1ccc(C(=O)/C=C/c2cc3c([nH]c4ccccc43)c(-c3cc(OC)c(OC)c(OC)c3)n2)cc1
IC50 (A549; Homo sapiens, A549, 48 h): 9.61 µM

O=C(/C=C/c1cc2c([nH]c3ccccc32)c(-c2ccc(F)cc2)n1)c1ccc(F)cc1
IC50 (A549; Homo sapiens, A549, 48 h): 5.65 µM

CCOC(=O)CN(C)CC1CCc2c(n(C)c3ccccc23)C1=O (centres undefined)
IC50 (HCT-116): 18.9 µM

CC1=CC2C(=O)c3nccc(N(C)C)c3C(=O)C2N=C1 (centres undefined) [listing 1 of 2 here]
IC50 (A549; Homo sapiens, A549, 48 h): 3.29 µM

COc1cc(O)c(C(CO)C(O)CO)c2oc3cccc(O)c3c(=O)c12 (centres undefined)
IC50 (MCF7): 9.7 µM

Cn1c2c(c3ccccc31)CCC(CN1CCOCC1)C2=O (centres undefined)
IC50 (HCT-116): 4.73 µM

CCCCCCOc1cccc2c1C(=O)c1c(OCCCCCC)cc(Cn3cnc4c(N)ncnc43)cc1C2=O
IC50 (HCT-116): 8.1 µM

Cc1nccc2c3ccccc3n(CCCCn3c4ccccc4c4ccnc(C)c43)c12
IC50 (HCT-116): 3.58 µM

Cc1cnc2c(c1)C(=O)C1N=CC=C(C=O)C1C2=O (centres undefined)
IC50 (A549; Homo sapiens, A549, 48 h): 0.33 µM

COc1cc(O)c2c(c1O)C(=O)C1=C(C2=O)C(O)C(O)C(C)(O)C1 (centres undefined)
IC50 (MCF7): 7.5 µM

Cc1cnc2c(c1)C(=O)C1C=CC=NC1C2=O (centres undefined)
IC50 (A549; Homo sapiens, A549, 48 h): 2.23 µM

CC1=CC2C(=O)c3nccc(I)c3C(=O)C2N=C1 (centres undefined)
IC50 (A549; Homo sapiens, A549, 48 h): 0.14 µM

COc1cc(C(=O)/C=C/c2cc3c([nH]c4ccccc43)c(-c3ccc(F)c(F)c3)n2)cc(OC)c1OC
IC50 (MCF7): 8.7 µM

CC(=O)N1N=C(c2ccc(N)cc2)CC1c1cc2c([nH]c3ccccc32)c(-c2ccc(F)c(F)c2)n1 (centres undefined)
IC50 (A549; Homo sapiens, A549, 48 h): 9.77 µM

C[C@]1(O)Cc2c(O)c3c(c(O)c2[C@H](O)[C@H]1O)C(=O)C=C(N1CCC(c2ccccc2)CC1)C3=O
IC50 (MCF7): 4.81 µM

CCCCCCNC1=CC(=O)c2c(O)c3c(c(O)c2C1=O)C[C@](C)(O)[C@H](O)[C@H]3O
IC50 (MCF7): 4.87 µM

CCCCn1c2c(c3ccccc31)CCC(CN1CCOCC1)C2=O (centres undefined)
IC50 (HCT-116): 5.82 µM

C#CCOc1cc(O)c2c(c1)C(=O)c1cc(C)cc(O)c1C2=O
IC50 (MCF7): 20 µM

CC(=O)N1N=C(c2ccc(N)cc2)CC1c1cc2c([nH]c3ccccc32)c(-c2ccc(C(F)(F)F)cc2)n1 (centres undefined)
IC50 (A549; Homo sapiens, A549, 48 h): 13.2 µM

Cn1c2c(c3ccccc31)CCC(CN1CCCCC1)C2=O (centres undefined)
IC50 (HCT-116): 2.33 µM

CCCCCCNC1=CC(=O)c2c(O)c3c(c(O)c2C1=O)C[C@](C)(O)[C@H](O)C3
IC50 (HCT-116): 3.14 µM

CCCCNC1=CC(=O)c2c(O)c3c(c(O)c2C1=O)C[C@](C)(O)[C@H](O)[C@H]3O
IC50 (MCF7): 1.08 µM

O=C1c2c(O)ccnc2C(=O)C2C(c3ccccc3)=CC=NC12 (centres undefined)
IC50 (A549; Homo sapiens, A549, 48 h): 14.5 µM

CC(C)=CCn1c2c(c3ccccc31)CCC(CN1CCOCC1)C2=O (centres undefined)
IC50 (HCT-116): 4.55 µM

O=C(/C=C/c1cc2c([nH]c3ccccc32)c(-c2ccc(F)c(F)c2)n1)c1cccs1
IC50 (A549; Homo sapiens, A549, 48 h): 6.76 µM

CC1=CC2C(=O)c3nccc(N(C)C)c3C(=O)C2N=C1 (centres undefined) [listing 2 of 2 here]
IC50 (A549; a549): 3.12 µM

CCN(C)CC1CCc2c(n(C)c3ccccc23)C1=O (centres undefined)
IC50 (HCT-116): 11.8 µM

CCN(CC)CC1CCc2c(n(C)c3ccccc23)C1=O (centres undefined)
IC50 (A549; Homo sapiens, A549, 48 h): 0.07 µM

CC1CCN(C2=CC(=O)c3c(O)c4c(c(O)c3C2=O)C[C@](C)(O)[C@H](O)C4)CC1
IC50 (HCT-116): 14.9 µM

COC1=C(C)C(O)=CC2C(=O)c3c(ccc(OC)c3OC)C(=O)C12 (centres undefined)
IC50 (MCF7): 10.2 µM

CCCNC1=CC(=O)c2c(O)c3c(c(O)c2C1=O)C[C@](C)(O)[C@H](O)[C@H]3O
IC50 (MCF7): 14 µM

O=c1c2ccc(O)c(O)c2oc2cc(O)cc(O)c12
IC50 (HCT-116): 18.6 µM

C[C@]1(O)Cc2c(O)c3c(c(O)c2C[C@H]1O)C(=O)C=C(N1CCCCC1)C3=O
IC50 (HCT-116): 16.3 µM

C=C[C@@]1(C)C=C2[C@@H](O[C@@H]3O[C@H](C)[C@H](O)[C@H](O)[C@H]3O)C[C@@H]3C(C)(C)[C@H](O[C@@H]4O[C@@H](C)[C@H](O)[C@@H](O)[C@H]4OC(C)=O)CC[C@@]3(C)[C@@H]2CC1
IC50 (A549; Homo sapiens, A549, 48 h): 10.4 µM

Cn1c2c(c3ccccc31)CCC(CN1CCCC1)C2=O (centres undefined)
IC50 (HCT-116): 12.8 µM
